Test results reported in article PMC10202359, “Nicotinamide N-methyltransferase (NNMT) regulates the glucocorticoid signaling pathway during the early phase of adipogenesis” (Scientific Reports, 2023).
Read-outs that look alike come from different tables or passages of the source.

Tests used:
human NNMT = molecular target: T1, human NNMT (Homo sapiens, UniProt P40261); assay: hNNMT enzymatic modulation, RapidFire SPE LC/MS assay (Lilly); assay type: biochemical
T1 sequence (P40261 1-264): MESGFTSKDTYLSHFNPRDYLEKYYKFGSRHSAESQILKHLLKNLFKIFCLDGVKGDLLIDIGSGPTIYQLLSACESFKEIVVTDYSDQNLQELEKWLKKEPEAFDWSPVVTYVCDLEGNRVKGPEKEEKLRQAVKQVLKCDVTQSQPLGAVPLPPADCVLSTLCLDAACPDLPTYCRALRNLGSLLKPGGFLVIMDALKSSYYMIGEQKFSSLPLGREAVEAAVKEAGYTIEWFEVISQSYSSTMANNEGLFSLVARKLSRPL

3T3-L1 cells [1] = assay: CellTiter-Blue cell viability assay, 3T3-L1; assay type: cell-based, mouse; conditions: highest concentration (1–25 uM tested), assessed at terminal differentiation
Method: CellTiter-Blue® Cell Viability Assay (Promega) was used following the manufacturer’s instructions. 3T3-L1 cells were seeded at a density of 2 × 10^3 cells per well in 96-well plates and cultured till confluence in standard medium. Two-day post-confluent 3T3-L1 cells were induced with DIM and treated with 1, 5, 10 and 25 µM CC-410 along with an untreated control (0.5% DMSO) in 4 different conditions: every 48 h throughout the differentiation period; once in the first 20 h following DIM stimulation; once 48 h after DIM stimulation; or after the early differentiation phase. In all cases, cell viability was assessed at terminal differentiation. Cell viability percentages were calculated by normalizing the fluorescence recorder (560/590) for the treated samples over untreated controls.

[2] = Lilly Open Innovation Drug Discovery high throughput screening
Excerpt: CC-410 chemical structure was initially submitted to the Open Innovation Drug Discovery program[39] (Lilly Research Laboratories, Eli Lilly and Company, Indianapolis, USA), and it was selected for its novelty and drug-like properties, based on cheminformatic evaluation. Briefly, the submitted molecular structure was firstly processed based on the Lilly Medical Chemistry Rules, which are aimed at identifying and eventually excluding from screening those compounds that may interfere with biological assays. Next, structure-based filters, including MW, cLogP, solubility and toxicity among others were analyzed to select molecules with high druggable features. Additionally, the compound was also filtered based on the number of heavy atoms, number of rings, number of aromatic rings, ring size and other physicochemical properties. Solubility and permeability of the compound were also considered for the screening. For molecules passing the cheminformatic evaluation a substance check and comparison with known drugs (both Lilly and PubChem collections) was performed in order to select for novelty. Once the molecule passed this selection it was physically submitted to be tested with a high throughput screening study, querying the activity of the molecule against a wide variety of possible therapeutic targets.

SMYD2 = molecular target: T2, SMYD2 (Homo sapiens, UniProt Q9NRG4); assay: Methyltransferase Hot Spot radioisotope assay, SMYD2; assay type: biochemical
T2 construct: purchased Reaction Biology Corporation
Method: CC-410 was screened in biochemical assays for activity against a panel of 11 methyltransferases (MT) by using the radioisotope (3H-AdoMet) based MT Hot Spot Assay. All the assays were performed by Reaction Biology Corporation (RBC, Malven, PA, USA). Briefly CC-410 was incubated with the selected MTs, corresponding substrates, and radiolabeled SAM (S-Adenosyl-L-[methyl-3 H]methionine). The specific MTs assessed, and the corresponding substrates are as follows: DNMT1- Poly dl-dC, DNMT3a- Lambda DNA, DNMT3b- Lambda DNA, DOT1L- Nucleosomes, EZH2 Complex- Core Histone, METTL21A- HSPA8-[CTD], NRMT1- RCC1, PRMT3- Histone H4, PRMT5/MEP50- Histone H2A, SET1b -Core Histone Complex and SMYD2- Nucleosomes. Reaction mixtures were incubated and spotted onto filter papers, which were then washed to remove unreacted SAM, leaving the bound radiolabeled product. Detection of the radiolabeled, methylated product was performed via a nanoliter-scale radioisotope filter binding platform. […] For each assay, control compounds were included as positive controls for enzyme function and assay reproducibility. […] IC50 was calculated by non-linear least square fitting dose–response curve.

3T3-L1 cells [3] = assay: Oil Red-O staining of adipocyte differentiation, 3T3-L1; assay type: cell-based, mouse; conditions: for reduction of adipogenesis (Oil Red-O quantification) compared to untreated control: treatment throughout the differentiation process (during adipogenesis)
Method: 3T3-L1 Mouse Embryonic Fibroblasts were purchased from American Type Culture Collection (ATCC CL-173). The cells were propagated and maintained in Dulbecco’s modified Eagle’s medium (DMEM, Gibco) supplemented with 10% calf serum (FCS) at 37 °C in 5% CO2 atmosphere. Subconfluents cells were expanded and utilized for the subsequent experiments at the passages 3–6. To induce differentiation, 2-day post-confluent 3T3-L1 pre-adipocytes were cultured for 48 h with DIM (DMEM supplemented with 10% fetal bovine serum (FBS), 1.0 µM Dexamethasone (G. Biosciences), […] Insulin (Sigma) and 0.5 mM IBMX (Sigma). Two days after induction the DIM medium was removed and the cells were maintained in DMED supplemented with 10% FBS and […] Insulin, which was replaced every 48 h, until the cells became fully differentiated (8–10 days after induction). C3H10T1/2 cells were purchased from American Type Culture Collection (ATCC, clone 8, CCL-226, were grown and induced to differentiate following the same protocol, with cell cultures < 3 passages. Oil Red-O staining was used as previously described. Briefly, cells were fixed for 30 min with 4% formaldehyde, stained with filtered Oil Red solution (0.2% oil red in 40% 2-propanol) and washed 5 times with distilled water. The accumulation of fat droplets in the cells was visualized and photographed under an inverted microscope (DMi1, Leica). The dye was eluted with 100% 2-propanol and quantified spectroscopically at 510 nm (Synergy HT, Bio-Tek).

T2 sequence (Q9NRG4 whole entry, species assumed): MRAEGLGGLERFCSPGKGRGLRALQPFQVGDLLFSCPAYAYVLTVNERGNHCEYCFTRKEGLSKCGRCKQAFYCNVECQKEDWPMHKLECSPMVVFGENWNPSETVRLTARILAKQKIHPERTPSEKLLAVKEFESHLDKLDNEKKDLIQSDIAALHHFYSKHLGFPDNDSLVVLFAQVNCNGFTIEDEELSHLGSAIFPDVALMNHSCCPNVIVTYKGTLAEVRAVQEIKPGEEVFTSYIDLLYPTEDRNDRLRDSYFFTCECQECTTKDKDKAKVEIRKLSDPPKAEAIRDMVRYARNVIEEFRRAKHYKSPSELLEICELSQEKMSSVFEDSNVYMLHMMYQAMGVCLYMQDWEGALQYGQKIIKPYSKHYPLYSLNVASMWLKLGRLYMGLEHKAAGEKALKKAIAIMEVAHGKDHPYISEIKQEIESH

Question: Which IC50 (human NNMT; MNAM product readout, LC/MS, Fig. 4B, read-out: hNNMT MNAN Rel IC50) does the source give for COC(=O)CCC(C)C1CCC2C3C(N)CC4CC(OC(C)=O)CCC4(C)[C@H]3CC(N)C12C (stereo in doubt) [CC-410, Methyl-(4S)-4-((3S,5S,7S,8S,10R,12R,13S,14R,17S)-3-acetoxy-7,12-diamino-10,13-dimethylhexadecahydro-1H-cyclopenta[a]phenanthren-17-yl) pentanoate] here?
Answer: The IC50 was 1640 nM.

Question: What about the IC50 (human NNMT; automated solid-phase extraction and LC-MS, read-out: IC50 against human NNMT) of the same molecule?
Answer: The IC50 was 1600 nM.

Question: What about the IC50 (human NNMT; hNNMT SAH Rel IC50, SAH product readout, LC/MS, Fig. 4B) of the same molecule?
Answer: Its IC50 is 1700 nM.

Question: And the cell viability (3T3-L1 cells [1])?
Answer: Its cell viability is “only a slight reduction in cell viability”.

Question: What about the “activity against a wide variety of possible therapeutic targets” value [2] of the same molecule?
Answer: The value was “exclusive inhibitory activity against human NNMT”.

Question: What about the IC50 (SMYD2) of the same molecule?
Answer: The IC50 was 34300 nM.

Question: And the “reduction of adipogenesis (Oil Red-O quantification) compared to untreated control” value (3T3-L1 cells [3]; 15 µM)?
Answer: Its value is 60%.

Question: What about the “reduction of adipogenesis (Oil Red-O quantification) compared to untreated control” value (3T3-L1 cells [3]; 25 µM) of the same molecule?
Answer: Its value is 80%.

Question: What about the inhibition of adipogenesis (3T3-L1 cells [3]; administered in the first 20 h after hormonal induction, highest concentration tested) of the same molecule?
Answer: The inhibition of adipogenesis was 50%.

Question: And the effect on adipogenesis (3T3-L1 cells [3]; continuously dispensed after the early phase of adipogenesis)?
Answer: The effect on adipogenesis was “no anti-adipogenic effect was evident”.

Question: And the effect on adipogenesis (3T3-L1 cells [3]; treatment during the 48 h of DEX stimulation, followed by IBMX 48 h)?
Answer: The effect on adipogenesis was “strongly impaired adipogenesis”.

Question: What about the effect on adipogenesis (3T3-L1 cells [3]; treatment during the early phase (from T0 to 48 h)) of the same molecule?
Answer: Its effect on adipogenesis is “markedly reduced adipogenesis, with levels analogous to continuous treatment”.
